Tested on: test plant species
Assay: Post-emergent herbicidal activity test (greenhouse, foliar spray, visual growth reduction)
Type: in vivo
Settings: post-emergence, 336 h, ECHCG: barnyardgrass (Echinochloa crus-galli), 140 g ai/ha, 14 days after application, read-out: Visual Growth Reduction (%) 14 Days After Application, ECHCG
Description: Post-emergent Test: Seeds or nutlets of the desired test plant species were planted in Sun Gro Metro-Mix® 360 planting mixture, which typically has a pH of 6.0 to 6.8 and an organic matter content of about 30 percent, in plastic pots with a surface area of 64 square centimeters. In some aspects, to ensure good germination and healthy plants, a fungicide treatment and/or other chemical or physical treatment was applied. The plants were grown for 7-21 d in a greenhouse with an approximate 15 h photoperiod which was maintained at 23-29° C. during the day and 22-28° C. during the night. Nutrients and water were added on a regular basis and supplemental lighting was provided with overhead metal halide 1000-Watt lamps as necessary. Plants were used for testing when they reached the first or second true leaf stage. A weighed amount, determined by the highest rate to be tested, of each test compound was placed in a 25 mL glass vial and was dissolved in 4 mL of a 97:3 v/v mixture of acetone and DMSO to obtain concentrated stock solutions. […] The concentrated stock solutions obtained were diluted with 20 mL of an aqueous mixture containing acetone, water, isopropyl alcohol, DMSO, […] crop oil concentrate, and X-77 surfactant in a 48.5:39:10:1.5:1.0:0.02 v/v ratio to obtain spray solutions containing the application rate. Compound requirements are based upon a 12 mL application volume at a rate of 187 liters per hectare (L/ha). Formulated compounds were applied to the plant material with an overhead Mandel track sprayer equipped with […] nozzles calibrated to deliver 187 L/ha over an application area of 0.64 square meters at a spray height of 18 inches (43 cm) above the average plant canopy height. Control plants were sprayed in the same manner with the solvent blank. The treated plants and control plants were placed in a greenhouse as described above and watered by subirrigation to prevent wash-off of the test compounds. After 14 d, the condition of the test plants as compared with that of the nontreated and control plants was determined visually and scored on a scale of 0 to 100 percent where 0 corresponds to no injury and 100 corresponds to complete control. In the reporting of the results, Table A: Percent Growth Reduction Conversion Table was used.

Row | Structure (SMILES) | pest or weed control at 140 g/ha
1 | C=Cc1cc(-c2nc(C(=O)O)c(Cl)cc2F)c(Cl)cc1C(F)(F)F [F350, 3-Chloro-6-(2-chloro-4-(trifluoromethyl)-5-vinylphenyl)-5-fluoropicolinic acid] | 0 to 29%
2 | COC(=O)c1nc(-c2cc(F)c(C(F)(F)F)cc2OC)c(F)cc1Cl [F359, Methyl 3-chloro-5-fluoro-6-(5-fluoro-2-methoxy-4-(trifluoromethyl)phenyl)picolinate] | 95 to 100%

Same assay, conditions: post-emergence, 336 h, IPOHE: ivy-leaf morning glory (Ipomoea hederacea), 140 g ai/ha, 14 days after application, read-out: Visual Growth Reduction (%) 14 Days After Application, IPOHE

Row | Structure (SMILES) | pest or weed control at 140 g/ha
3 | C=Cc1cc(-c2nc(C(=O)O)c(Cl)cc2F)c(Cl)cc1C(F)(F)F [F350, 3-Chloro-6-(2-chloro-4-(trifluoromethyl)-5-vinylphenyl)-5-fluoropicolinic acid] | 85 to 94%
4 | COC(=O)c1nc(-c2cc(F)c(C(F)(F)F)cc2OC)c(F)cc1Cl [F359, Methyl 3-chloro-5-fluoro-6-(5-fluoro-2-methoxy-4-(trifluoromethyl)phenyl)picolinate] | 95 to 100%

Same assay, conditions: post-emergence, 336 h, KCHSC: kochia (Bassia scoparia), 140 g ai/ha, 14 days after application, read-out: Visual Growth Reduction (%) 14 Days After Application, KCHSC

Row | Structure (SMILES) | pest or weed control at 140 g/ha
5 | C=Cc1cc(-c2nc(C(=O)O)c(Cl)cc2F)c(Cl)cc1C(F)(F)F [F350, 3-Chloro-6-(2-chloro-4-(trifluoromethyl)-5-vinylphenyl)-5-fluoropicolinic acid] | 85 to 94%
6 | COC(=O)c1nc(-c2cc(F)c(C(F)(F)F)cc2OC)c(F)cc1Cl [F359, Methyl 3-chloro-5-fluoro-6-(5-fluoro-2-methoxy-4-(trifluoromethyl)phenyl)picolinate] | 85 to 94%

Same assay, conditions: post-emergence, 336 h, ORYSA: rice (Oryza sativa), 140 g ai/ha, 14 days after application, read-out: Visual Growth Reduction (%) 14 Days After Application, ORYSA

Row | Structure (SMILES) | pest or weed control at 140 g/ha
7 | C=Cc1cc(-c2nc(C(=O)O)c(Cl)cc2F)c(Cl)cc1C(F)(F)F [F350, 3-Chloro-6-(2-chloro-4-(trifluoromethyl)-5-vinylphenyl)-5-fluoropicolinic acid] | 0 to 29%
8 | COC(=O)c1nc(-c2cc(F)c(C(F)(F)F)cc2OC)c(F)cc1Cl [F359, Methyl 3-chloro-5-fluoro-6-(5-fluoro-2-methoxy-4-(trifluoromethyl)phenyl)picolinate] | 0 to 29%

Same assay, conditions: post-emergence, 336 h, SETFA: giant foxtail (Setaria faberi), 140 g ai/ha, 14 days after application, read-out: Visual Growth Reduction (%) 14 Days After Application, SETFA

Row | Structure (SMILES) | pest or weed control at 140 g/ha
9 | C=Cc1cc(-c2nc(C(=O)O)c(Cl)cc2F)c(Cl)cc1C(F)(F)F [F350, 3-Chloro-6-(2-chloro-4-(trifluoromethyl)-5-vinylphenyl)-5-fluoropicolinic acid] | 0 to 29%
10 | COC(=O)c1nc(-c2cc(F)c(C(F)(F)F)cc2OC)c(F)cc1Cl [F359, Methyl 3-chloro-5-fluoro-6-(5-fluoro-2-methoxy-4-(trifluoromethyl)phenyl)picolinate] | 95 to 100%

Same assay, conditions: post-emergence, 336 h, SORVU: grain sorghum (Sorghum vulgare), 140 g ai/ha, 14 days after application, read-out: Visual Growth Reduction (%) 14 Days After Application, SORVU

Row | Structure (SMILES) | pest or weed control at 140 g/ha
11 | C=Cc1cc(-c2nc(C(=O)O)c(Cl)cc2F)c(Cl)cc1C(F)(F)F [F350, 3-Chloro-6-(2-chloro-4-(trifluoromethyl)-5-vinylphenyl)-5-fluoropicolinic acid] | 0 to 29%
12 | COC(=O)c1nc(-c2cc(F)c(C(F)(F)F)cc2OC)c(F)cc1Cl [F359, Methyl 3-chloro-5-fluoro-6-(5-fluoro-2-methoxy-4-(trifluoromethyl)phenyl)picolinate] | 85 to 94%

Same assay, conditions: post-emergence, 336 h, STEME: common chickweed (Stellaria media), 140 g ai/ha, 14 days after application, read-out: Visual Growth Reduction (%) 14 Days After Application, STEME

Row | Structure (SMILES) | pest or weed control at 140 g/ha
13 | C=Cc1cc(-c2nc(C(=O)O)c(Cl)cc2F)c(Cl)cc1C(F)(F)F [F350, 3-Chloro-6-(2-chloro-4-(trifluoromethyl)-5-vinylphenyl)-5-fluoropicolinic acid] | 0 to 29%
14 | COC(=O)c1nc(-c2cc(F)c(C(F)(F)F)cc2OC)c(F)cc1Cl [F359, Methyl 3-chloro-5-fluoro-6-(5-fluoro-2-methoxy-4-(trifluoromethyl)phenyl)picolinate] | 0 to 29%

Same assay, conditions: post-emergence, 336 h, TRZAS: wheat, spring (Triticum aestivum), 140 g ai/ha, 14 days after application, read-out: Visual Growth Reduction (%) 14 Days After Application, TRZAS

Row | Structure (SMILES) | pest or weed control at 140 g/ha
15 | C=Cc1cc(-c2nc(C(=O)O)c(Cl)cc2F)c(Cl)cc1C(F)(F)F [F350, 3-Chloro-6-(2-chloro-4-(trifluoromethyl)-5-vinylphenyl)-5-fluoropicolinic acid] | 0 to 29%
16 | COC(=O)c1nc(-c2cc(F)c(C(F)(F)F)cc2OC)c(F)cc1Cl [F359, Methyl 3-chloro-5-fluoro-6-(5-fluoro-2-methoxy-4-(trifluoromethyl)phenyl)picolinate] | 60 to 74%

Same assay, conditions: post-emergence, 336 h, blackgrass (Alopecurus myosuroides), 14 Days After Application, 140 g ai/ha, read-out: Visual Growth Reduction (%) ALOMY

Row | Structure (SMILES) | pest or weed control at 140 g/ha
17 | C=Cc1cc(-c2nc(C(=O)O)c(Cl)cc2F)c(Cl)cc1C(F)(F)F [F350, 3-Chloro-6-(2-chloro-4-(trifluoromethyl)-5-vinylphenyl)-5-fluoropicolinic acid] | 0 to 29%
18 | COC(=O)c1nc(-c2cc(F)c(C(F)(F)F)cc2OC)c(F)cc1Cl [F359, Methyl 3-chloro-5-fluoro-6-(5-fluoro-2-methoxy-4-(trifluoromethyl)phenyl)picolinate] | 30 to 44%

Same assay, conditions: post-emergence, 336 h, canada thistle (Cirsium arvense), 14 Days After Application, 140 g ai/ha, read-out: Visual Growth Reduction (%) CIRAR

Row | Structure (SMILES) | pest or weed control at 140 g/ha
19 | COC(=O)c1nc(-c2cc(F)c(C(F)(F)F)cc2OC)c(F)cc1Cl [F359, Methyl 3-chloro-5-fluoro-6-(5-fluoro-2-methoxy-4-(trifluoromethyl)phenyl)picolinate] | 75 to 84%

Same assay, conditions: post-emergence, 336 h, crabgrass (Digitaria sanguinalis), 14 Days After Application, 140 g ai/ha, read-out: Visual Growth Reduction (%) DIGSA

Row | Structure (SMILES) | pest or weed control at 140 g/ha
20 | C=Cc1cc(-c2nc(C(=O)O)c(Cl)cc2F)c(Cl)cc1C(F)(F)F [F350, 3-Chloro-6-(2-chloro-4-(trifluoromethyl)-5-vinylphenyl)-5-fluoropicolinic acid] | 30 to 44%
21 | COC(=O)c1nc(-c2cc(F)c(C(F)(F)F)cc2OC)c(F)cc1Cl [F359, Methyl 3-chloro-5-fluoro-6-(5-fluoro-2-methoxy-4-(trifluoromethyl)phenyl)picolinate] | 30 to 44%

Same assay, conditions: post-emergence, 336 h, lambsquarters (Chenopodium album), 14 Days After Application, 140 g ai/ha, read-out: Visual Growth Reduction (%) CHEAL

Row | Structure (SMILES) | pest or weed control at 140 g/ha
22 | C=Cc1cc(-c2nc(C(=O)O)c(Cl)cc2F)c(Cl)cc1C(F)(F)F [F350, 3-Chloro-6-(2-chloro-4-(trifluoromethyl)-5-vinylphenyl)-5-fluoropicolinic acid] | 60 to 74%
23 | COC(=O)c1nc(-c2cc(F)c(C(F)(F)F)cc2OC)c(F)cc1Cl [F359, Methyl 3-chloro-5-fluoro-6-(5-fluoro-2-methoxy-4-(trifluoromethyl)phenyl)picolinate] | 95 to 100%

Same assay, conditions: post-emergence, 336 h, redroot pigweed (Amaranthus retroflexus), 14 Days After Application, 140 g ai/ha, read-out: Visual Growth Reduction (%) AMARE

Row | Structure (SMILES) | pest or weed control at 140 g/ha
24 | C=Cc1cc(-c2nc(C(=O)O)c(Cl)cc2F)c(Cl)cc1C(F)(F)F [F350, 3-Chloro-6-(2-chloro-4-(trifluoromethyl)-5-vinylphenyl)-5-fluoropicolinic acid] | 30 to 44%
25 | COC(=O)c1nc(-c2cc(F)c(C(F)(F)F)cc2OC)c(F)cc1Cl [F359, Methyl 3-chloro-5-fluoro-6-(5-fluoro-2-methoxy-4-(trifluoromethyl)phenyl)picolinate] | 95 to 100%

Same assay, conditions: post-emergence, 336 h, wild oat (Avena fatua), 14 Days After Application, 140 g ai/ha, read-out: Visual Growth Reduction (%) AVEFA

Row | Structure (SMILES) | pest or weed control at 140 g/ha
26 | C=Cc1cc(-c2nc(C(=O)O)c(Cl)cc2F)c(Cl)cc1C(F)(F)F [F350, 3-Chloro-6-(2-chloro-4-(trifluoromethyl)-5-vinylphenyl)-5-fluoropicolinic acid] | 0 to 29%
27 | COC(=O)c1nc(-c2cc(F)c(C(F)(F)F)cc2OC)c(F)cc1Cl [F359, Methyl 3-chloro-5-fluoro-6-(5-fluoro-2-methoxy-4-(trifluoromethyl)phenyl)picolinate] | 75 to 84%

Same assay, conditions: post-emergence, 336 h, yellow nutsedge (Cyperus esculentus), 14 Days After Application, 140 g ai/ha, read-out: Visual Growth Reduction (%) CYPES

Row | Structure (SMILES) | pest or weed control at 140 g/ha
28 | C=Cc1cc(-c2nc(C(=O)O)c(Cl)cc2F)c(Cl)cc1C(F)(F)F [F350, 3-Chloro-6-(2-chloro-4-(trifluoromethyl)-5-vinylphenyl)-5-fluoropicolinic acid] | 0 to 29%
29 | COC(=O)c1nc(-c2cc(F)c(C(F)(F)F)cc2OC)c(F)cc1Cl [F359, Methyl 3-chloro-5-fluoro-6-(5-fluoro-2-methoxy-4-(trifluoromethyl)phenyl)picolinate] | 0 to 29%
